According to the Kinase Knowledgebase extract (Sharma et al. 2016):

Key:
PIK3CA (human) [1] = target: PIK3CA (human) (UniProt P42336); test: Assessment of PIK3CA Kinase Activity in NZB5 Cells
PIK3CA (human) [2] = target: PIK3CA (human) (UniProt P42336); test: Assessment of PIK3CA Kinase Activity in NZOV9 Cells

Sequence of PIK3CA (human) (P42336 whole entry, looked up): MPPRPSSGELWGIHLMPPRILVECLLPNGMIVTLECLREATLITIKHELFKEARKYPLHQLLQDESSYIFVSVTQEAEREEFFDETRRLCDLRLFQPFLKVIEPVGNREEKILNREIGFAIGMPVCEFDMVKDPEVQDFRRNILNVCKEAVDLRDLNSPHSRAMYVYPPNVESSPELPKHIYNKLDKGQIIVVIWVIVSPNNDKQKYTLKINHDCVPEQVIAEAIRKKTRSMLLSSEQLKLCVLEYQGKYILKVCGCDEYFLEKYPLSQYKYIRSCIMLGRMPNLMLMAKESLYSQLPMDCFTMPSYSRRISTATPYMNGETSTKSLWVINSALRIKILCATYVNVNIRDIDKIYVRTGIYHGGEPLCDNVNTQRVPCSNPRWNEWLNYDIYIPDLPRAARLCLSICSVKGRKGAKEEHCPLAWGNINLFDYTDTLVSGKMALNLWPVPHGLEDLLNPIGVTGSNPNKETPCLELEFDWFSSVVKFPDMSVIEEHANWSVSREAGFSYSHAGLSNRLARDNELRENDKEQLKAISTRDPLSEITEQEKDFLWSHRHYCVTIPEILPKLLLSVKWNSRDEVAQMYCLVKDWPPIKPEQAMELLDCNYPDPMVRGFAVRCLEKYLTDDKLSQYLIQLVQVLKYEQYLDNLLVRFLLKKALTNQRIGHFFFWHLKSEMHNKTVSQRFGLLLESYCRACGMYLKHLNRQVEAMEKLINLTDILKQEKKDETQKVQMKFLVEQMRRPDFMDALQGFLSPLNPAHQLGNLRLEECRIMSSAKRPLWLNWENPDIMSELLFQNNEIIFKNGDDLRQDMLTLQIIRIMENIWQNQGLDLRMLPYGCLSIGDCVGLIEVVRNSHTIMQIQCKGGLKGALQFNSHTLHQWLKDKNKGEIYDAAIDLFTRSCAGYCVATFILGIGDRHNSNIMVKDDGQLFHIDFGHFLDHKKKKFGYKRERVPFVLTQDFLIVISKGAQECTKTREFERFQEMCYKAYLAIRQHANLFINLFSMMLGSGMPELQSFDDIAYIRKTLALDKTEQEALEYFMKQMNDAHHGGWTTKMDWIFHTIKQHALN

Compound | IC50 (PIK3CA (human) [1]) | IC50 (PIK3CA (human) [2])
Cc1c([N+](=O)[O-])cccc1S(=O)(=O)N(C)N=Cc1cnn2ccc(C#N)cc12 | > 20 µM | > 20 µM
Cc1ccc(C(=O)O)cc1S(=O)(=O)N(C)N=Cc1cnn2ccc(C#N)cc12 | > 20 µM | > 20 µM
Cc1ccc(F)cc1S(=O)(=O)N(C)N=Cc1cnn2ccc(C#N)cc12 | > 20 µM | 
Cc1cc([N+](=O)[O-])ccc1S(=O)(=O)N(C)N=Cc1cnn2ccc(C#N)cc12 | > 20 µM | > 20 µM

Further lines, results first:

IC50 (PIK3CA (human) [1]) | IC50 (PIK3CA (human) [2]) | Compound
> 20 µM | > 20 µM | Cc1ccc([N+](=O)[O-])cc1C(=O)N(C)N=Cc1cnn2ccc(C#N)cc12
> 20 µM | > 20 µM | CC(=O)Nc1ccc(C)c(S(=O)(=O)N(C)N=Cc2cnn3ccc(C#N)cc23)c1
 | 0.1 µM | CN(C)c1ccc([N+](=O)[O-])cc1S(=O)(=O)N(C)N=Cc1cnn2ccc(C#N)cc12
> 20 µM |  | Cc1ccccc1S(=O)(=O)N(C)N=Cc1cnn2ccc(C#N)cc12
